According to publication PMC4007590, “Development of an oligonucleotide-based fluorescence assay for the identification of tyrosyl-DNA phosphodiesterase 1 (TDP1) inhibitors” (Analytical Biochemistry, 2014):
Where two headings read alike, the source gives them in different places.

Target: T1, tyrosyl-DNA phosphodiesterase 1 (TDP1) (Homo sapiens, UniProt Q9NUW8)
T1 construct: catalytic domain of human TDP1
Experiment: Gyrasol fluorescence quench assay, FITC-phosphotyrosyl […]mer oligonucleotide substrate, recombinant TDP1
Assay type: biochemical

T1 sequence (Q9NUW8 149-608 limits assumed): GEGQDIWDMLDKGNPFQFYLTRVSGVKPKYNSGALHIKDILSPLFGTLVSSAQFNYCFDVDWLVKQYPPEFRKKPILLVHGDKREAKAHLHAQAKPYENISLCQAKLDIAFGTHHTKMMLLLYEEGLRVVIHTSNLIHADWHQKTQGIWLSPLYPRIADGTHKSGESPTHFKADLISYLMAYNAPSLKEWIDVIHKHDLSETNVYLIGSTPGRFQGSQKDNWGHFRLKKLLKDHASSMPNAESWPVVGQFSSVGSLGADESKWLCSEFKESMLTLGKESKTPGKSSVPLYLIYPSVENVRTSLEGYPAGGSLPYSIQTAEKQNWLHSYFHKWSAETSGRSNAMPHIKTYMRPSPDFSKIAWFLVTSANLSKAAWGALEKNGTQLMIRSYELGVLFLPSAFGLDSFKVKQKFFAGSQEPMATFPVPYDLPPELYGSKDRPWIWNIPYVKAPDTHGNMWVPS

Row | IC50 (read-out: IC50) [µM] | Compound | IC50 [µM]
1 | 5 | Cc1ccc(C(=O)Nc2ccc(S(=O)(=O)O)c3cc(S(=O)(=O)O)cc(S(=O)(=O)O)c23)cc1NC(=O)c1cccc(NC(=O)Nc2cccc(C(=O)Nc3cc(C(=O)Nc4ccc(S(=O)(=O)O)c5cc(S(=O)(=O)O)cc(S(=O)(=O)O)c45)ccc3C)c2)c1 [Suramin] | 
2 |  | [O]=[V]([OH])([OH])[OH] [sodium orthovanadate] | 4
